Patent US20200087709A1, “DIRECT-TO-CONSUMER GENOMIC DIAGNOSTIC DEVICE” (MicroInvestigate, LLC, priority 2018, published 2020)
Entries after “also recorded” stand apart in the source; their conditions may differ.

What was measured:
Assay in all cases: Antibiotic testing by broth microdilution
Format in all cases: cell-based
[1] = system: Streptococcus pyogenes MGAS6180; settings: for resistance or susceptibility by broth dilution: S. pyogenes MGAS6180 (mef(A) negative); for MIC: Streptococcus pyogenes, S. pyogenes MGAS6180, known mef(A)−, BHI, 37° C., 20 hour incubation
Protocol: (§1) All bacteria were tested for their antimicrobial susceptibility by broth microdilution. Ampicillin (Cat #97061-442) was obtained from VWR (Amresco) and Erythromycin (Cat # TCE0751-5G) was obtained from VWR (TCI). Bacteria were maintained on blood agar plates at 37° C., and single colonies selected for inoculation into liquid overnight cultures in sterile Brain-Heart Infusion (BHI, VWR Cat #90003-038). For each culture, 5 mL of BHI media was inoculated in a sealed 15 ml falcon tube for overnight incubation at 37° C. (no shaking). Gentle inversion was used to mix the cultures prior to setting up the assay.
(§2) For the experiment, 5 μl of overnight culture was mixed with 5 mL of BMI media (1000× dilution) in a sterile tray and gently mixed. This dilute culture was added at […] per well of a 96-well plate pre-loaded with 20 μl of antibiotic solutions ranging, for erythromycin, from 0.5 to 32 μg/ml (10×) to produce the desired final concentrations of 0.05-3.2 μg/ml. For ampicillin, the stocks were 1.25 μg/ml-80 μg/ml resulting in final concentrations of 0.125 μg/ml-8 μg/ml. The 96-well plate was then transferred to a FilterMax F5 microplate reader for a 20 hour incubation at a temperature of 37° C., with readings taken every 30 minutes. A10-second orbital shaking was performed prior to each reading.

[2] = system: Streptococcus salivarius patient isolate; settings: for resistance or susceptibility by broth dilution: S. salivarius (mef(A) positive); for MIC: Streptococcus salivarius, 20 h, S. salivarius patient isolate, discovered mef(A)+, BHI, 37° C., 20 hour incubation
Protocol: as §1, §2

[3] = system: Streptococcus pyogenes MGAS10394; settings: for resistance or susceptibility by broth dilution: S. pyogenes MGAS10394 (mef(A) positive); for MIC: Streptococcus pyogenes, MGAS10394, 20 h, S. pyogenes MGAS10394, known mef(A)+, BHI, 37° C., 20 hour incubation
Protocol: as §1, §2

[4] = system: Streptococcus agalactiae SGBS025; settings: for resistance or susceptibility by broth dilution: S. agalactiae (ermB positive and mef(A) negative); for MIC: Streptococcus agalactiae, SGBS025, 20 h, S. agalactiae SGBS025, known ermB+, mef(A)−, BHI, 37° C., 20 hour incubation
Protocol: as §1, §2

Row | SMILES | resistance or susceptibility by broth dilution [1] | MIC [1] [µg/mL] | resistance or susceptibility by broth dilution [2] | MIC [2] [µg/mL] | resistance or susceptibility by broth dilution [3] | MIC [3] [µg/mL] | resistance or susceptibility by broth dilution [4] | MIC [4] [µg/mL]
1 | CC1(C)S[C@@H]2[C@H](NC(=O)[C@H](N)c3ccccc3)C(=O)N2[C@H]1C(=O)O [ampicillin, Ampicillin] | susceptible | < 0.125 | susceptible | < 0.125 | susceptible | < 0.125 | susceptible | < 0.125
2 | CC[C@H]1OC(=O)[C@H](C)[C@@H](O[C@H]2C[C@@](C)(OC)[C@@H](O)[C@H](C)O2)[C@H](C)[C@@H](O[C@@H]2O[C@H](C)C[C@H](N(C)C)[C@H]2O)[C@](C)(O)C[C@@H](C)C(=O)[C@H](C)[C@@H](O)[C@]1(C)O [erythromycin, Erythromycin] | susceptible | < 0.05 | resistant | ≥ 3.2 | resistant | ≥ 3.2 | robust resistance; also recorded: resistant | ≥ 3.2
